In PMC7531004, “Discovery of gramicidin A analogues with altered activities by multidimensional screening of a one-bead-one-compound library” (Nature Communications, 2020):
Where a SMILES comes first, the peptide text is derived from it. [ ]: non-standard residue; d: D form. The star is where a group is joined. NHCH2CH2OH = OCCN*; For = O=C*

Key:
[1] = H+/Na+ transport assay of bead-derived peptides (one-point); type: biochemical; parameters: key: relative activity; mean of two control wells = 1.00; conditions: bead-derived peptide solution, EYPC/EYPG LUVs;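 further: relative to parent gramicidin A activity set to 1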
Summary of the method: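 Values are normalized fluorescence, with Triton X-100 defining 100% and untreated LUVs 0%, and the two control wells averaging 1.00. Vesicles carried 1.0 mM pyranine and included egg yolk phosphatidylglycerol. Peptides were incubated with them 30 min at room temperature.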

[2] = test system: Streptococcus pyogenes SSI-9; assay: Antibacterial activity assay of bead-derived peptides (three concentrations); type: cell-based; parameters: key: +++: inhibition by the 640-fold diluted peptide solution; ++: inhibition by the 160-fold diluted solution; +: inhibition by the 40-fold diluted solution; -: no inhibition; conditions: S. pyogenes, bead-derived peptide solution, three concentrations
Summary of the method: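 Library peptide stock applied undiluted, 4-fold and 16-fold diluted in DMSO to S. pyogenes SSI-9 (2 × 10^5 CFU) in cation-adjusted Mueller Hinton broth with 5% laked horse blood. After 18 h at 37 °C, growth judged by visible cell precipitation.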

[3] = cell viability/%
Summary of the method: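 P388 cells at 1 × 10^4 cells/mL (final) were exposed to library peptides (stocks diluted 250-fold in RPMI1640/10% FBS) for 92 h at 37 °C, 5% CO2. Viable cells were counted by WST-1/1-methoxy PMS (4 h), absorbance 415 nm, and expressed as cell viability (%).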

Compound	H+/Na+ transport activity normalized against the value of 1 (1.00) [1]	antibacterial activity [2]	viability [3] [%]
CC(C)C[C@@H](NC(=O)[C@H](C)NC(=O)CNC(=O)[C@@H](NC=O)C(C)C)C(=O)N[C@@H](C)C(=O)N[C@H](CC(C)C)C(=O)N[C@H](C(=O)N[C@@H](C(=O)N[C@@H](Cc1c[nH]c2ccccc12)C(=O)N[C@H](CC(C)C)C(=O)N[C@@H](Cc1c[nH]c2ccccc12)C(=O)N[C@@H](C(=O)N[C@@H](Cc1c[nH]c2ccccc12)C(=O)N[C@H](CC(C)C)C(=O)N[C@@H](Cc1c[nH]c2ccccc12)C(=O)NCCO)[C@H](C)O)[C@H](C)O)C(C)C [compound 1176] (For-VGA[dL]A[dL]V[dT]W[dL]W[dT]W[dL]W-NHCH2CH2OH)	1.01	-	100
CNC(=O)C[C@@H](NC(=O)[C@@H](NC(=O)[C@@H](CC(C)C)NC(=O)[C@H](C)NC(=O)[C@H](NC(=O)[C@H](C)NC(=O)CNC(=O)[C@@H](NC=O)C(C)C)C(C)C)C(C)C)C(=O)N[C@@H](Cc1c[nH]c2ccccc12)C(=O)N[C@H](CC(C)C)C(=O)N[C@@H](Cc1c[nH]c2ccccc12)C(=O)N[C@H](CC(C)C)C(=O)N[C@@H](Cc1c[nH]c2ccccc12)C(=O)N[C@H](CC(C)C)C(=O)N[C@@H](Cc1c[nH]c2ccccc12)C(=O)NCCO [compound 1242] (For-VGA[dV]A[dL]V[dD](NHMe)W[dL]W[dL]W[dL]W-NHCH2CH2OH)	1.13	-	65.8
CC(C)C[C@@H](NC(=O)[C@H](C)NC(=O)CNC(=O)[C@@H](NC=O)C(C)C)C(=O)N[C@@H](C)C(=O)N[C@@H](C(=O)N[C@H](C(=O)N[C@H](CC(C)C)C(=O)N[C@@H](Cc1c[nH]c2ccccc12)C(=O)N[C@@H](C(=O)N[C@@H](Cc1c[nH]c2ccccc12)C(=O)N[C@H](CC(C)C)C(=O)N[C@@H](Cc1c[nH]c2ccccc12)C(=O)N[C@@H](C(=O)N[C@@H](Cc1c[nH]c2ccccc12)C(=O)NCCO)C(C)C)[C@H](C)O)C(C)C)C(C)C [compound 1253] (For-VGA[dL]A[dV]V[dL]W[dT]W[dL]W[dV]W-NHCH2CH2OH)	1.03	-	58.1
CC(C)C[C@@H](NC(=O)[C@H](C)NC(=O)[C@H](NC(=O)[C@H](C)NC(=O)CNC(=O)[C@@H](NC=O)C(C)C)C(C)C)C(=O)N[C@H](C(=O)N[C@@H](C(=O)N[C@@H](Cc1c[nH]c2ccccc12)C(=O)N[C@@H](C(=O)N[C@@H](Cc1c[nH]c2ccccc12)C(=O)N[C@H](CC(C)C)C(=O)N[C@@H](Cc1c[nH]c2ccccc12)C(=O)N[C@H](CC(C)C)C(=O)N[C@@H](Cc1c[nH]c2ccccc12)C(=O)NCCO)C(C)C)C(C)C)C(C)C [compound 1406] (For-VGA[dV]A[dL]V[dV]W[dV]W[dL]W[dL]W-NHCH2CH2OH)	1.04	+	91.1
CNC(=O)C[C@@H](NC(=O)[C@H](C)NC(=O)[C@H](NC(=O)[C@H](C)NC(=O)CNC(=O)[C@@H](NC=O)C(C)C)C(C)C)C(=O)N[C@H](C(=O)N[C@H](CC(C)C)C(=O)N[C@@H](Cc1c[nH]c2ccccc12)C(=O)N[C@H](CC(C)C)C(=O)N[C@@H](Cc1c[nH]c2ccccc12)C(=O)N[C@@H](C(=O)N[C@@H](Cc1c[nH]c2ccccc12)C(=O)N[C@H](CC(C)C)C(=O)N[C@@H](Cc1c[nH]c2ccccc12)C(=O)NCCO)C(C)C)C(C)C [compound 1489] (For-VGA[dV]A[dD](NHMe)V[dL]W[dL]W[dV]W[dL]W-NHCH2CH2OH)	1.03	-	100
CC(C)C[C@@H](NC(=O)[C@H](Cc1c[nH]c2ccccc12)NC(=O)[C@H](NC(=O)[C@H](Cc1c[nH]c2ccccc12)NC(=O)[C@@H](CC(C)C)NC(=O)[C@H](Cc1c[nH]c2ccccc12)NC(=O)[C@@H](CC(C)C)NC(=O)[C@@H](NC(=O)[C@H](NC(=O)[C@H](C)NC(=O)[C@H](NC(=O)[C@H](C)NC(=O)CNC(=O)[C@@H](NC=O)C(C)C)[C@H](C)O)C(C)C)C(C)C)C(C)C)C(=O)N[C@@H](Cc1c[nH]c2ccccc12)C(=O)NCCO [compound 1509] (For-VGA[dT]A[dV]V[dL]W[dL]W[dV]W[dL]W-NHCH2CH2OH)	1.10	-	100
CC(C)C[C@@H](NC(=O)[C@H](C)NC(=O)CNC(=O)[C@@H](NC=O)C(C)C)C(=O)N[C@@H](C)C(=O)N[C@@H](C(=O)N[C@H](C(=O)N[C@@H](C(=O)N[C@@H](Cc1c[nH]c2ccccc12)C(=O)N[C@@H](C(=O)N[C@@H](Cc1c[nH]c2ccccc12)C(=O)N[C@@H](C(=O)N[C@@H](Cc1c[nH]c2ccccc12)C(=O)N[C@@H](C(=O)N[C@@H](Cc1c[nH]c2ccccc12)C(=O)NCCO)C(C)C)C(C)C)C(C)C)[C@H](C)O)C(C)C)C(C)C [compound 1520] (For-VGA[dL]A[dV]V[dT]W[dV]W[dV]W[dV]W-NHCH2CH2OH)	1.04	-	100
CC(C)C[C@@H](NC(=O)[C@H](Cc1c[nH]c2ccccc12)NC(=O)[C@H](NC(=O)[C@@H](NC(=O)[C@H](NC(=O)[C@H](C)NC(=O)[C@H](NC(=O)[C@H](C)NC(=O)CNC(=O)[C@@H](NC=O)C(C)C)C(C)C)C(C)C)C(C)C)[C@H](C)O)C(=O)N[C@@H](Cc1c[nH]c2ccccc12)C(=O)N[C@H](CC(C)C)C(=O)N[C@@H](Cc1c[nH]c2ccccc12)C(=O)N[C@@H](C(=O)N[C@@H](Cc1c[nH]c2ccccc12)C(=O)NCCO)C(C)C [compound 1523] (For-VGA[dV]A[dV]V[dT]W[dL]W[dL]W[dV]W-NHCH2CH2OH)	1.04	+	100
CC(C)C[C@@H](NC(=O)[C@H](C)NC(=O)CNC(=O)[C@@H](NC=O)C(C)C)C(=O)N[C@@H](C)C(=O)N[C@@H](C(=O)N[C@H](C(=O)N[C@@H](C(=O)N[C@@H](Cc1c[nH]c2ccccc12)C(=O)N[C@@H](C(=O)N[C@@H](Cc1c[nH]c2ccccc12)C(=O)N[C@H](CC(C)C)C(=O)N[C@@H](Cc1c[nH]c2ccccc12)C(=O)N[C@H](CC(C)C)C(=O)N[C@@H](Cc1c[nH]c2ccccc12)C(=O)NCCO)[C@H](C)O)C(C)C)C(C)C)[C@H](C)O [compound 1592] (For-VGA[dL]A[dT]V[dV]W[dT]W[dL]W[dL]W-NHCH2CH2OH)	1.03	-	100
CC(C)C[C@@H](NC(=O)[C@H](C)NC(=O)CNC(=O)[C@@H](NC=O)C(C)C)C(=O)N[C@@H](C)C(=O)N[C@H](CC(C)C)C(=O)N[C@H](C(=O)N[C@@H](C(=O)N[C@@H](Cc1c[nH]c2ccccc12)C(=O)N[C@@H](C(=O)N[C@@H](Cc1c[nH]c2ccccc12)C(=O)N[C@H](CC(C)C)C(=O)N[C@@H](Cc1c[nH]c2ccccc12)C(=O)N[C@H](CC(C)C)C(=O)N[C@@H](Cc1c[nH]c2ccccc12)C(=O)NCCO)C(C)C)[C@H](C)O)C(C)C [compound 1631] (For-VGA[dL]A[dL]V[dT]W[dV]W[dL]W[dL]W-NHCH2CH2OH)	1.04	-	100
CC(C)C[C@@H](NC(=O)[C@H](C)NC(=O)CNC(=O)[C@@H](NC=O)C(C)C)C(=O)N[C@@H](C)C(=O)N[C@@H](C(=O)N[C@H](C(=O)N[C@@H](C(=O)N[C@@H](Cc1c[nH]c2ccccc12)C(=O)N[C@H](CC(C)C)C(=O)N[C@@H](Cc1c[nH]c2ccccc12)C(=O)N[C@@H](C(=O)N[C@@H](Cc1c[nH]c2ccccc12)C(=O)N[C@H](CC(C)C)C(=O)N[C@@H](Cc1c[nH]c2ccccc12)C(=O)NCCO)C(C)C)[C@H](C)O)C(C)C)C(C)C [compound 1711] (For-VGA[dL]A[dV]V[dT]W[dL]W[dV]W[dL]W-NHCH2CH2OH)	1.01	-	100
CC(C)C[C@@H](NC(=O)[C@H](C)NC(=O)CNC(=O)[C@@H](NC=O)C(C)C)C(=O)N[C@@H](C)C(=O)N[C@H](CC(C)C)C(=O)N[C@H](C(=O)N[C@@H](C(=O)N[C@@H](Cc1c[nH]c2ccccc12)C(=O)N[C@H](CC(C)C)C(=O)N[C@@H](Cc1c[nH]c2ccccc12)C(=O)N[C@H](CC(C)C)C(=O)N[C@@H](Cc1c[nH]c2ccccc12)C(=O)N[C@@H](C(=O)N[C@@H](Cc1c[nH]c2ccccc12)C(=O)NCCO)C(C)C)C(C)C)C(C)C [compound 1796] (For-VGA[dL]A[dL]V[dV]W[dL]W[dL]W[dV]W-NHCH2CH2OH)	1.09	-	0
CC(C)C[C@@H](NC(=O)[C@H](C)NC(=O)CNC(=O)[C@@H](NC=O)C(C)C)C(=O)N[C@@H](C)C(=O)N[C@@H](C(=O)N[C@H](C(=O)N[C@@H](C(=O)N[C@@H](Cc1c[nH]c2ccccc12)C(=O)N[C@H](CC(C)C)C(=O)N[C@@H](Cc1c[nH]c2ccccc12)C(=O)N[C@H](CC(C)C)C(=O)N[C@@H](Cc1c[nH]c2ccccc12)C(=O)N[C@H](CC(C)C)C(=O)N[C@@H](Cc1c[nH]c2ccccc12)C(=O)NCCO)[C@H](C)O)C(C)C)C(C)C [compound 1819] (For-VGA[dL]A[dV]V[dT]W[dL]W[dL]W[dL]W-NHCH2CH2OH)	1.22	+	100
